In US8815872B2, “Macrocyclics pyrimidines as aurora kinase inhibitors” (Merck Patent GmbH, priority 2008, dated 2014):
Values joined by “and” are separate entries in the source; they are usually repeats but may differ in a detail not shown here. Identical values can stand only once. Values belong to the compound of their own block, whether it stands above or below them.

Key:
Assay type in all cases: biochemical
[1] = target: T1, CaMKIV(h) (Homo sapiens, UniProt Q16566); assay: Other kinases, single-concentration inhibition (Table 3); settings: 1 μM
T1 construct: purchased Caliper Life Sciences
T1 sequence (Q16566 1-473): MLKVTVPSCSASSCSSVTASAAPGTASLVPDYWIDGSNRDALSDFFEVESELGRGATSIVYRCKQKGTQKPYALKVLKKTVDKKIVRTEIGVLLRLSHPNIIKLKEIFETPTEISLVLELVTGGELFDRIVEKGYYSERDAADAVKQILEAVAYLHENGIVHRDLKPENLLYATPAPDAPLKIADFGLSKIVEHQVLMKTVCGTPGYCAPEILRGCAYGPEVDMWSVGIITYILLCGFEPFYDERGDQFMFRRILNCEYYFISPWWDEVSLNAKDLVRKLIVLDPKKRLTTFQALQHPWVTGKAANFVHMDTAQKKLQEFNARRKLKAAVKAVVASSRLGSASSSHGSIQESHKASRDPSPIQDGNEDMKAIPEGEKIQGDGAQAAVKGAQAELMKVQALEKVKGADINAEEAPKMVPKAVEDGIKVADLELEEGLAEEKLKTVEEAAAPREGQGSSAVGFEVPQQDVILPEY
How it was run: (§1)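 Enzyme activity is measured as conversion of fluorescent peptide to phosphopeptide, with the two separated by charge under an applied potential. Reactions run 90 min at 25 °C with one compound concentration. Inhibition is normalised to no-inhibitor (0%) and no-ATP (100%) controls.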

[2] = target: T2, Lyn(m) (Mus musculus, UniProt P25911); assay: as above; settings: 1 μM
T2 construct: purchased Caliper Life Sciences
T2 sequence (P25911 whole entry): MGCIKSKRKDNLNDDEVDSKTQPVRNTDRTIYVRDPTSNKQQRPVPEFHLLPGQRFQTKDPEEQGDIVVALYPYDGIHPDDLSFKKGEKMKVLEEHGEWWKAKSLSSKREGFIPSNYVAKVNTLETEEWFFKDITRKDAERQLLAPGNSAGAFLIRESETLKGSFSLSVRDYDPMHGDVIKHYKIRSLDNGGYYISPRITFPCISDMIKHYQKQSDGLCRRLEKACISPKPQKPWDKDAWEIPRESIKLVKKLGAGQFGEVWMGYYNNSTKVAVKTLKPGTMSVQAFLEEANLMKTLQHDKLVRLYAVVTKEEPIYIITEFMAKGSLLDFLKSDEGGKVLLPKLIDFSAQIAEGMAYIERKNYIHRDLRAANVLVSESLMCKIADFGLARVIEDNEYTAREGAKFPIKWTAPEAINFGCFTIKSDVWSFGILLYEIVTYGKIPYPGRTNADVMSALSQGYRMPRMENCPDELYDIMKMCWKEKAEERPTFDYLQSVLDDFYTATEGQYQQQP
How it was run: as §1

[3] = target: T3, BRSK2 (Homo sapiens, UniProt Q8IWQ3); assay: Other kinases, inhibition at 1 μM (Table 3)
T3 construct: purchased Caliper Life Sciences
Procedure: (§2) The Aurora and other kinase assays described here were performed on two Caliper Life Sciences systems, the LC3000 and the Desktop Profiler. These provide data on enzyme activity via measurement of the relative amounts of phosphorylated or unphosphorylated fluorescently labelled substrate peptide at the end of an enzymatic reaction. These different states of peptide are resolved by applying a potential difference across the sample. The presence of a charged phosphate group on the product (as opposed to the substrate) causes a different peptide mobility between the two peptides. This is visualized by excitation of a fluorescent label on the substrate and product peptides and represented as peaks within the analysis software.
(§3) The Desktop Profiler utilizes the same principal as the LC 3000 for calculating percentage conversion of a substrate to product. Caliper Life Sciences provided proprietary flash frozen pre-made 384 well plates containing selected kinases. Each column in the 384 well plate contained a particular selected kinase. A second plate, the ‘substrate plate’ contained a mix of fluorescently labeled peptide substrate and ATP. These were arranged in columns so that transfer for substrate plate to enzyme plate provided the correct enzyme with the correct substrate/ATP concentration.
(§4) Compounds were added to a thawed enzyme plate in the desired format, in single concentrations. Reactions were initiated by transfer of the ubstrate/ATP mix from the substrate plate. The enzyme plate was incubated for 90 mins at 25 °C. The reaction was stopped by addition of […] of Stop Buffer (100 mM HEPES pH 7.5, 0.015% Brij-35, 10 mM EDTA (Sigma, E7889)).
(§5) Plates were read in a manner identical to that of the LC3000, and the ratio between substrate and product peaks provided the activity of the enzyme in that well. This was best represented by a plate heat map which colors each well by percent inhibition as compared to positive and negative controls (no inhibitors and no ATP respectively).

[4] = target: T4, CHK1 (Homo sapiens, UniProt O14757); assay: Other kinases, inhibition at 1 μM (Table 3)
T4 construct: purchased Caliper Life Sciences
T4 sequence (O14757 whole entry, species assumed): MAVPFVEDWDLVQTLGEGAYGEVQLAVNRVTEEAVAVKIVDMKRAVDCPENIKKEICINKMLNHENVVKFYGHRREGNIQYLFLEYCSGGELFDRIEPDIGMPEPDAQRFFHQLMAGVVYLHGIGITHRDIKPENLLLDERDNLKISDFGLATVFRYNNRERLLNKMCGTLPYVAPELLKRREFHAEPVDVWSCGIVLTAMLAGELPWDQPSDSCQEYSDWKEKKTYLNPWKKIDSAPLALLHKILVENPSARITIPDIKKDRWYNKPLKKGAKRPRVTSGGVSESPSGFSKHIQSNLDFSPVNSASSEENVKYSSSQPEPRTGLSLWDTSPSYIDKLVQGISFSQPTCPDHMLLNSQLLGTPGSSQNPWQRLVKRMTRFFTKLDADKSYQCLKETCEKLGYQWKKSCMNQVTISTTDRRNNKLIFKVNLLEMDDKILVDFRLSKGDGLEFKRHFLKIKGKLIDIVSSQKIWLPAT
Procedure: as §2, §3, §4, §5

[5] = target: T5, DYRK1-alpha (Homo sapiens, UniProt Q13627); assay: Other kinases, inhibition at 1 μM (Table 3)
T5 construct: purchased Caliper Life Sciences
Procedure: as §2, §3, §4, §5

[6] = target: T6, DYRK3 (Homo sapiens, UniProt O43781); assay: Other kinases, inhibition at 1 μM (Table 3)
T6 construct: purchased Caliper Life Sciences
Procedure: as §2, §3, §4, §5

[7] = target: T7, EF2K (Homo sapiens, UniProt O00418); assay: Other kinases, inhibition at 1 μM (Table 3)
T7 construct: purchased Caliper Life Sciences
Procedure: as §2, §3, §4, §5

[8] = target: T8, FGFR1 (Homo sapiens, UniProt P11362); assay: Other kinases, inhibition at 1 μM (Table 3)
T8 construct: purchased Caliper Life Sciences
Procedure: as §2, §3, §4, §5

[9] = target: T9, GSK3-beta (Homo sapiens, UniProt P49841); assay: Other kinases, inhibition at 1 μM (Table 3)
T9 construct: purchased Caliper Life Sciences
T9 sequence (P49841 whole entry, species assumed): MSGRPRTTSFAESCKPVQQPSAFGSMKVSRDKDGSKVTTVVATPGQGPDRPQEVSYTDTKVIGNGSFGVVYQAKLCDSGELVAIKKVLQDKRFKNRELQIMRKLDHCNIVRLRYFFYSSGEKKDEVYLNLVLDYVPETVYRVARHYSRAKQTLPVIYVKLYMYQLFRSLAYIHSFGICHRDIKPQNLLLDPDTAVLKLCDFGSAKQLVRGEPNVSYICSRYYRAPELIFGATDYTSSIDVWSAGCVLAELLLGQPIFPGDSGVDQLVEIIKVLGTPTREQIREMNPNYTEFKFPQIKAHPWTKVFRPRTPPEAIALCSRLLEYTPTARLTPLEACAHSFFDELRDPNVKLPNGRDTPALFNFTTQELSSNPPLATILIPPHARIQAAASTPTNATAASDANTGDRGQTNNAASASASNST
Procedure: as §2, §3, §4, §5

[10] = target: T10, HIPK2 (Homo sapiens, UniProt Q9H2X6); assay: Other kinases, inhibition at 1 μM (Table 3)
T10 construct: purchased Caliper Life Sciences
T10 sequence (Q9H2X6 whole entry, species assumed): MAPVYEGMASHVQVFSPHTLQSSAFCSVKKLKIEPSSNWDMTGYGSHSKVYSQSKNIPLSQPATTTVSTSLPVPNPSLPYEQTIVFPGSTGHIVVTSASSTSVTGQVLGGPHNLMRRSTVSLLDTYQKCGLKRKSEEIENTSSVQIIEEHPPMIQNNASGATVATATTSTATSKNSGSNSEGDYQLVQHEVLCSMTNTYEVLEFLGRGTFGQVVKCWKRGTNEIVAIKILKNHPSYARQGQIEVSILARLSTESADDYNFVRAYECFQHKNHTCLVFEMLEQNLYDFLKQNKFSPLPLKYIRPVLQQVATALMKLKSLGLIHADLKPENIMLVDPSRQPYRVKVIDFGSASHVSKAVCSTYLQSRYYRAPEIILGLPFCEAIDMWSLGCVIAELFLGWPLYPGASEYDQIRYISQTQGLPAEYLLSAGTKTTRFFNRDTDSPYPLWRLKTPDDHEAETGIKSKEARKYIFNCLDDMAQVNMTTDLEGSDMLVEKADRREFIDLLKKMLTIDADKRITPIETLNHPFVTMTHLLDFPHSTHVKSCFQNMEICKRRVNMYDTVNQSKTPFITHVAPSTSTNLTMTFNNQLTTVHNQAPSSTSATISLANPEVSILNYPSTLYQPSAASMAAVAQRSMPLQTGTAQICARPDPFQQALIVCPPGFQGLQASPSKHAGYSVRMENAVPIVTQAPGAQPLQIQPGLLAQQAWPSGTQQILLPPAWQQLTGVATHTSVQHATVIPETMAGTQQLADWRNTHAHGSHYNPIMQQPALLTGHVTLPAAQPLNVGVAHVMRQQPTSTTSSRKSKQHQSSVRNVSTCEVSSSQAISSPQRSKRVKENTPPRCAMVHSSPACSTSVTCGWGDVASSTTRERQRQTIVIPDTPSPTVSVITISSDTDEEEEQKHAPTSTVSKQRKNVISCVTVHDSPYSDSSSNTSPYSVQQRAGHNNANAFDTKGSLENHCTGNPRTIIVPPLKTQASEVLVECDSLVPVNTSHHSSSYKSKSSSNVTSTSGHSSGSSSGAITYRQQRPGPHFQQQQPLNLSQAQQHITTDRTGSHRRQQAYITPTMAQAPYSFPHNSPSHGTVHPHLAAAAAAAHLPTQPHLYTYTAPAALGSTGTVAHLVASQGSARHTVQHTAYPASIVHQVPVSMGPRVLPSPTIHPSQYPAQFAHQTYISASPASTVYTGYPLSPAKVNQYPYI
Procedure: as §2, §3, §4, §5

[11] = target: T11, IGF1-R (Homo sapiens, UniProt P08069); assay: Other kinases, inhibition at 1 μM (Table 3)
T11 construct: purchased Caliper Life Sciences
Procedure: as §2, §3, §4, §5

[12] = target: T12, LCK (Homo sapiens, UniProt P06239); assay: Other kinases, inhibition at 1 μM (Table 3)
T12 construct: purchased Caliper Life Sciences
Procedure: as §2, §3, §4, §5

[13] = target: T13, MAPKAP-K1-beta (Homo sapiens, UniProt P51812); assay: Other kinases, inhibition at 1 μM (Table 3)
T13 construct: purchased Caliper Life Sciences
T13 sequence (P51812 whole entry): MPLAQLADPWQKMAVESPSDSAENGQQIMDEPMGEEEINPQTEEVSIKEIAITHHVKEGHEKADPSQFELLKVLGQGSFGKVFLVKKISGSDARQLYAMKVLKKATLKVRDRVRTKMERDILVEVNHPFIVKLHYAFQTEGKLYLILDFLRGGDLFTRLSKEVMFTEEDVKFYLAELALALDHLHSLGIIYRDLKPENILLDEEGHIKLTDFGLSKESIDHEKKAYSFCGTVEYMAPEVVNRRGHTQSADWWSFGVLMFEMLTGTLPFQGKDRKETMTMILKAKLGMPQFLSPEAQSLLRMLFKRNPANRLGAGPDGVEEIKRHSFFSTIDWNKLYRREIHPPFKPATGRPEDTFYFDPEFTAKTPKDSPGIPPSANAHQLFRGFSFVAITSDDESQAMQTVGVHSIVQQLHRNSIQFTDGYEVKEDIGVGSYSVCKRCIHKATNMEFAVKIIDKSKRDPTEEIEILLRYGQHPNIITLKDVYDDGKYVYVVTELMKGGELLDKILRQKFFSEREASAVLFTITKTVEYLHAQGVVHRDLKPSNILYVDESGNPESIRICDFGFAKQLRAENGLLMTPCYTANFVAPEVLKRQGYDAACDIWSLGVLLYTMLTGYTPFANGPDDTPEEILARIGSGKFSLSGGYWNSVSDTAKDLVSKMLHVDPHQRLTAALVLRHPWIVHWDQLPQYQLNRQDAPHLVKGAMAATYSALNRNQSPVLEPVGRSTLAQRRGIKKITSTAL
Procedure: as §2, §3, §4, §5

[14] = target: T14, MARK3 (Homo sapiens, UniProt P27448); assay: Other kinases, inhibition at 1 μM (Table 3)
T14 construct: purchased Caliper Life Sciences
Procedure: as §2, §3, §4, §5

[15] = target: T15, MELK (Homo sapiens, UniProt Q14680); assay: Other kinases, inhibition at 1 μM (Table 3)
T15 construct: purchased Caliper Life Sciences
Procedure: as §2, §3, §4, §5

[16] = target: T16, MST2 (Homo sapiens, UniProt Q13188); assay: Other kinases, inhibition at 1 μM (Table 3)
T16 construct: purchased Caliper Life Sciences
Procedure: as §2, §3, §4, §5

[17] = target: T17, PAK5 (Homo sapiens, UniProt Q9P286); assay: Other kinases, inhibition at 1 μM (Table 3)
T17 construct: purchased Caliper Life Sciences
T17 sequence (Q9P286 whole entry): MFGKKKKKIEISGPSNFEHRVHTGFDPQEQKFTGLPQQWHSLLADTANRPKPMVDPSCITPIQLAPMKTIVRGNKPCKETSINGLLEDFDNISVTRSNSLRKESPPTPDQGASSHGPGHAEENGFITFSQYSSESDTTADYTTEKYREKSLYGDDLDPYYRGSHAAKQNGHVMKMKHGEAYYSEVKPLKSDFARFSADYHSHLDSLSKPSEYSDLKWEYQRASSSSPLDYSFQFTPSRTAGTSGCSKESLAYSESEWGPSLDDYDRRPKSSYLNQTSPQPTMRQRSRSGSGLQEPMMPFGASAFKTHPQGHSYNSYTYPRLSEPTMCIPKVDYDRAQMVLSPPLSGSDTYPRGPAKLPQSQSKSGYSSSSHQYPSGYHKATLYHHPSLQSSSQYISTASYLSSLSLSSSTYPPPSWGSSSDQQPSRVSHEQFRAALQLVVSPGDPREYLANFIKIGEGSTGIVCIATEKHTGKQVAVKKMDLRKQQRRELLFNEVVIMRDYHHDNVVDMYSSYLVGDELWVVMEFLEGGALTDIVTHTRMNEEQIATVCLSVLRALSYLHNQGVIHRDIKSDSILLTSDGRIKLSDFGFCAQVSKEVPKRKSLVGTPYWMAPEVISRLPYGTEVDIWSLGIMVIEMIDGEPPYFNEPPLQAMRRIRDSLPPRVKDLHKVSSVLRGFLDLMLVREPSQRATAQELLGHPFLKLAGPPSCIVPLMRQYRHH
Procedure: as §2, §3, §4, §5

[18] = target: T18, PAK6 (Homo sapiens, UniProt Q9NQU5); assay: Other kinases, inhibition at 1 μM (Table 3)
T18 construct: purchased Caliper Life Sciences
Procedure: as §2, §3, §4, §5

[19] = target: T19, PDK1 (Homo sapiens, UniProt O15530); assay: Other kinases, inhibition at 1 μM (Table 3)
T19 construct: purchased Caliper Life Sciences
Procedure: as §2, §3, §4, §5

[20] = target: T20, PKB-beta (Homo sapiens, UniProt P31751); assay: Other kinases, inhibition at 1 μM (Table 3)
T20 construct: purchased Caliper Life Sciences
Procedure: as §2, §3, §4, §5

[21] = target: T21, PKC-alpha (Homo sapiens, UniProt P17252); assay: Other kinases, inhibition at 1 μM (Table 3)
T21 construct: purchased Caliper Life Sciences
Procedure: as §2, §3, §4, §5

[22] = target: T22, PKC-zeta (Homo sapiens, UniProt Q05513); assay: Other kinases, inhibition at 1 μM (Table 3)
T22 construct: purchased Caliper Life Sciences
Procedure: as §2, §3, §4, §5

[23] = target: T23, PLK1 (Homo sapiens, UniProt P53350); assay: Other kinases, inhibition at 1 μM (Table 3)
T23 construct: purchased Caliper Life Sciences
T23 sequence (P53350 whole entry, species assumed): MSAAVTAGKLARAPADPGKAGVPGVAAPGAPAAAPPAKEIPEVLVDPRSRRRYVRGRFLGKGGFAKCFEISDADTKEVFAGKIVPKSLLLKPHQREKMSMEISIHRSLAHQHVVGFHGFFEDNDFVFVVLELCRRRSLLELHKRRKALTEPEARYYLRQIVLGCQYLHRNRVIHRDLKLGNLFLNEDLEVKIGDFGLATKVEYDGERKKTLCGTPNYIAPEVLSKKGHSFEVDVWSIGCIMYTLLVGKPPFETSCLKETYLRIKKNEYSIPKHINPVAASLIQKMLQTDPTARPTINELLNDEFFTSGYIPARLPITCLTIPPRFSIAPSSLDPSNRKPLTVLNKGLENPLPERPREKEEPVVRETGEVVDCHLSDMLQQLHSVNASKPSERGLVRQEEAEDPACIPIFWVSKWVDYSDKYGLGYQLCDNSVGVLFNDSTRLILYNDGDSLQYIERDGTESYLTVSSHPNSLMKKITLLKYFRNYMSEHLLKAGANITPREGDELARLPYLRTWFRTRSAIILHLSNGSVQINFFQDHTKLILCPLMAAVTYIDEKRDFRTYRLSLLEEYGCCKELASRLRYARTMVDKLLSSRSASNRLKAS
Procedure: as §2, §3, §4, §5

[24] = target: T24, SAPK2-alpha (Homo sapiens, UniProt Q16539); assay: Other kinases, inhibition at 1 μM (Table 3)
T24 construct: purchased Caliper Life Sciences
T24 sequence (Q16539 whole entry): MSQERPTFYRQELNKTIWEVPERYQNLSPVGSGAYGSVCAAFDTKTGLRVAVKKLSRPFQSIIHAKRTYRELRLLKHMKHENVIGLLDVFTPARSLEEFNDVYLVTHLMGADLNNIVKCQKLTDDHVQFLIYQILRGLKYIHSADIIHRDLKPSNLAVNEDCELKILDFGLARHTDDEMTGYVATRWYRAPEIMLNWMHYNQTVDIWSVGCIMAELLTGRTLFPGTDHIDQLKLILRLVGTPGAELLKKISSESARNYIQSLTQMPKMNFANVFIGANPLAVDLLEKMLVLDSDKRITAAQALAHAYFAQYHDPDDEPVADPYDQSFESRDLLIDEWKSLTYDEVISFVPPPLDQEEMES
Procedure: as §2, §3, §4, §5

[25] = target: T25, SAPK2-beta (Homo sapiens, UniProt Q15759); assay: Other kinases, inhibition at 1 μM (Table 3)
T25 construct: purchased Caliper Life Sciences
Procedure: as §2, §3, §4, §5

[26] = target: T26, SAPK3 (Homo sapiens, UniProt P53778); assay: Other kinases, inhibition at 1 μM (Table 3)
T26 construct: purchased Caliper Life Sciences
Procedure: as §2, §3, §4, §5

[27] = target: T27, SGK (Homo sapiens, UniProt O00141); assay: Other kinases, inhibition at 1 μM (Table 3)
T27 construct: purchased Caliper Life Sciences
Procedure: as §2, §3, §4, §5

% inhibition CaMKIV(h) [1]: 140% | % inhibition Lyn(m) [2]: 104%
Structure (SMILES): C=C[C@@H]1C[C@@H]2/C=C/COc3cccc(c3)Nc3ncc(F)c(n3)N[C@H]2[C@H]1C(N)=O (single isomer, unassigned) [Example 3]

% inhibition CaMKIV(h) [1]: 97% | % inhibition Lyn(m) [2]: 108%
Structure (SMILES): CC[C@@H]1C[C@@H]2CCCOc3cccc(c3)Nc3ncc(F)c(n3)N[C@H]2[C@H]1C(N)=O (single isomer, unassigned) [Example 5]

% inhibition CaMKIV(h) [1]: 99% | % inhibition Lyn(m) [2]: 93%
Structure (SMILES): CC[C@@H]1C[C@@H]2/C=C\COc3cccc(c3)Nc3ncc(F)c(n3)N[C@H]2[C@H]1C(N)=O (single isomer, unassigned) [Example 6]

Structure (SMILES): Fc1cnc2nc1NC1CCCC(C1)OC/C=C\COc1cccc(c1)N2 (single isomer, unassigned) [Example 33, (16Z)-6-fluoro-14,19-dioxa-2,4,8,26-tetraazatetracyclo[18.3.1.1˜3,7˜0.1˜9,13˜]hexacosa-1(24),3(26),4,6,16,20,22-heptaene]
inhibition at 1 µM [3]: 81% | % inhibition CHK1 [4]: 98% | inhibition at 1 µM [5]: 86% | inhibition at 1 µM [6]: 99% | inhibition at 1 µM [7]: 78% | inhibition at 1 µM [8]: 74% | inhibition at 1 µM [9]: 57% | inhibition at 1 µM [10]: 68% | inhibition at 1 µM [11]: 82% | inhibition at 1 µM [12]: 54% | % inhibition MAPKAP-K1-beta [13]: 68% | % inhibition MARK3 [14]: 73% | % inhibition MELK [15]: 101% | % inhibition MST2 [16]: 61% | % inhibition PAK5 [17]: 92% | % inhibition PAK6 [18]: 90% | % inhibition PDK1 [19]: 91% | % inhibition PKB-beta [20]: 85% | % inhibition PKC-alpha [21]: 57% | % inhibition PKC-zeta [22]: 104% | % inhibition PLK1 [23]: 63% and 92% | inhibition at 1 µM [24]: 76% | inhibition at 1 µM [25]: 83% | inhibition at 1 µM [26]: 87% | inhibition at 1 µM [27]: 87%

Structure (SMILES): NC(=O)[C@H]1[C@H]2C[C@H]3[C@H]1Nc1nc(ncc1F)Nc1cccc(c1)CSS[C@@H]3C2 [Example 10]
inhibition at 1 µM [3]: 26% | % inhibition CHK1 [4]: 73% | inhibition at 1 µM [5]: 83% | inhibition at 1 µM [6]: 78% | inhibition at 1 µM [7]: 62% | inhibition at 1 µM [8]: 10% | inhibition at 1 µM [9]: 19% | inhibition at 1 µM [10]: 23% | inhibition at 1 µM [11]: 2% | inhibition at 1 µM [12]: 14% | % inhibition MAPKAP-K1-beta [13]: 19% | % inhibition MARK3 [14]: 74% | % inhibition MELK [15]: 36% | % inhibition MST2 [16]: 8% | % inhibition PAK5 [17]: 72% | % inhibition PAK6 [18]: 81% | % inhibition PDK1 [19]: 73% | % inhibition PKB-beta [20]: 101% | % inhibition PKC-alpha [21]: 56% | % inhibition PKC-zeta [22]: 99% | % inhibition PLK1 [23]: 4% and 12% | inhibition at 1 µM [24]: 89% | inhibition at 1 µM [25]: 81% | inhibition at 1 µM [26]: 72% | inhibition at 1 µM [27]: 82% | % inhibition CaMKIV(h) [1]: 66% | % inhibition Lyn(m) [2]: 8%

% inhibition CaMKIV(h) [1]: 119% | % inhibition Lyn(m) [2]: 99%
Structure (SMILES): NC(=O)[C@H]1[C@H]2C[C@H]3[C@H]1Nc1nc(ncc1F)Nc1cccc(c1)C(=O)CS[C@@H]3C2 [Example 11]
